Laboratory results from paper PMC12064818, “A general assay platform to study protein pharmacology using ligand-dependent structural dynamics” (Nature Communications, 2025).

Target: T1, FLuc-C-HiBiT (Photinus pyralis, UniProt P08659)
T1 construct: firefly luciferase with C-terminal HiBiT tag, E. coli expressed
Assay: biochemical
Conditions: enzyme activity, 10 uM ATP; read-out: IC50 or SDR50 (mM) / FLuc E

T1 sequence (P08659 whole entry, looked up): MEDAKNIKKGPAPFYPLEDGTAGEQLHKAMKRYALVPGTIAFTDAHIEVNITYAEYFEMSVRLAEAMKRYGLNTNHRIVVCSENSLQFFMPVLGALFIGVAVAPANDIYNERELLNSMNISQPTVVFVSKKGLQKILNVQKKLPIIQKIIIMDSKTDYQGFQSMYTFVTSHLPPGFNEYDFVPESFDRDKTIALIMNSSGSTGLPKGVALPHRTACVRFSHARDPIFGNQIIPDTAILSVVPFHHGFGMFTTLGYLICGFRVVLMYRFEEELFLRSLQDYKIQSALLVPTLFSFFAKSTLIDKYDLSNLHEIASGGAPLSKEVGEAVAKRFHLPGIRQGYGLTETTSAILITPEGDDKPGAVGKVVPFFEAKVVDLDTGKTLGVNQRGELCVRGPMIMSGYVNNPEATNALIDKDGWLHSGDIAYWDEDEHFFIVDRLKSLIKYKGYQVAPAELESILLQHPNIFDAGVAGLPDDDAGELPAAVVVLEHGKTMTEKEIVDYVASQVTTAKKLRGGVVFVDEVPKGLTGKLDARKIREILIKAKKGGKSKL

Row | IC50 [µM] | Compound
1 | > 30 | Cc1c(C(=O)Nc2cccc(-c3nc4ccccc4s3)c2)oc2ccc(F)cc12 [NCGC00119183-01]
2 | 14 | Cc1ccc(NC(=O)C2CCN(c3nc(-c4ccc(C(C)C)cc4)no3)CC2)c(Cl)c1 [NCGC00134062-01]
3 | 7.85 | CC(=O)c1ccc(NC(=O)CCc2c(C)nc3cc(-c4ccc(Cl)cc4)nn3c2C)cc1 [NCGC00110026-01]
4 | 11.1 | CCC(=O)NCCC1CCN(C(=O)Nc2ccc(C)c(F)c2)CC1 [NCGC00425067-01]
5 | 12.4 | C[C@H](C(=O)NCCN1CCOCC1)C1CC[C@@]2(C)Cc3sc(CSc4ccccc4)nc3[C@@H](C)[C@@H]2[C@H]1O (some centres unmarked) [NCGC00398276-01]
6 | > 30 | COc1ccccc1OC1(C(=O)O)CCN(c2ncnc3[nH]cnc23)CC1 [NCGC00436727-01]
7 | 11.1 | CN(CCc1ccccn1)c1ccc(-c2nc(COc3ccccc3)no2)cn1 [NCGC00426301-01]
8 | 11.1 | CC1CCN(c2ncnc3c2cnn3-c2ccc(F)cc2)CC1 [NCGC00139049-01]
9 | 1.57 | COc1ccc(-c2noc(Nc3ccc4c(c3)OCCO4)n2)cc1 [NCGC00422336-01]
10 | 7 | Cc1cc(C)cc(C(=O)NCCn2ccn3nc(-c4ccc(C)cc4C)cc3c2=O)c1 [NCGC00456988-01]
11 | 1.97 | Cc1ccc(N2CCN(c3nc(C(=O)O)cs3)CC2)cc1 [NCGC00432723-01]
12 | 12.4 | COc1cccc(-c2cc3c(=O)n(CCNC(=O)C4CCN(C(C)=O)CC4)ccn3n2)c1 [NCGC00457070-01]
13 | 18 | COc1ccc(-c2cnc3[nH]cc(CC(=O)N4CCN(c5ccccn5)CC4)c3c2)cc1 [NCGC00412443-01]
14 | > 30 | COc1ccc(CNC(=O)Cn2cccc2C(=O)c2ccccc2C)cc1 [NCGC00113808-01]
15 | 11.1 | CCn1c(C2CCCN(C(=O)Nc3ccc4c(c3)OCCO4)C2)nn(C)c1=O (centres unmarked) [NCGC00439046-01]
16 | 9.89 | CC(CCn1cccn1)NC(=O)c1csc2nc(-c3ccc(C(F)(F)F)cc3)cn12 (centres unmarked) [NCGC00427469-01]
17 | 0.00221 | O=C(O)c1cccc(-c2noc(-c3ccc(Cl)cc3)n2)c1 [NCGC00168764-01]
18 | > 30 | COc1cc(OC)c(NC(=O)Cn2c(SCc3ccccc3F)nc3cccnc32)cc1Cl [NCGC00124034-02]
19 | 11.1 | COc1ccc(-c2nc(C)c(CCNC(=O)c3cccs3)s2)cc1 [NCGC00135787-01]
20 | > 30 | COc1ccc(OC)c(CN2CCOc3ccc(C(=O)NCc4ccc(C)cc4)cc3C2)c1 [NCGC00426332-01]
21 | > 30 | Cc1ccc(C(=O)Nc2ccc(-c3nc4ccccc4s3)c(O)c2)c(C)c1 [NCGC00134691-01]
22 | 15.7 | Cc1ccc2nc(C(=O)N3CCCC3c3cc(C(C)C)on3)cn2c1 (centres unmarked) [NCGC00437737-01]
23 | > 30 | Cc1cc(NCCc2cnccn2)nc(-c2ccccc2O)n1 [NCGC00445970-01]
24 | 20.2 | Cc1nn(-c2ccc(C(C)(C)C)cc2)c(C)c1[C@@H]1C=C[C@@H](NC(=O)CCCC(=O)O)C1 [NCGC00400254-01]
25 | 25.5 | CC(=O)NC1(C)CN(Cc2ccc(-c3ccc(Oc4ccccc4)cc3)s2)C1 [NCGC00410351-01]
26 | 3.94 | Cc1ccc(NC(=O)Nc2ccc(C)n(CC(=O)NC(C)(C)C)c2=O)cc1 [NCGC00430790-01]
27 | 9.89 | Cc1ccc(-c2cc3c(=O)n(CCNC(=O)c4cccnc4)ccn3n2)c(C)c1 [NCGC00456961-01]

Row | IC50 [µM] | Compound
28 | 12.8 | Clc1cccc(Nc2cc3c(cn2)CN(Cc2cccnc2)CCN3)c1 [NCGC00411094-01]
29 | 14.3 | CCNC(=O)N[C@@H]1C=C[C@@H](c2c(C)nn(-c3ccc(C(F)(F)F)cc3)c2C)C1 [NCGC00397974-01]
30 | 7 | O=C(Nc1cccc(F)c1)Nc1ccc2n(c1=O)C[C@H]1C[C@@H]2CN(C(=O)c2ccc(F)cc2)C1 [NCGC00398007-01]
31 | 11.4 | CC(=O)NC1(C)CCN(Cc2cccc(-c3ccc4ccccc4c3)c2)C1 (centres unmarked) [NCGC00410355-01]
32 | 25.4 | Cc1nnn2c(C(=O)NC3CC3)cccc12 [NCGC00477171-01]
33 | > 30 | Nc1nc2c(nc(O)n2[C@H]2C[C@H](O)[C@@H](CO)O2)c(=O)[nH]1 [NCGC00475978-01]
34 | 1.24 | Clc1ccc(-n2ncc3c(NC4CCCC4)ncnc32)cc1 [NCGC00139250-01]
35 | > 30 | Cc1noc(C)c1CN1CCc2nc(C(=O)Nc3ccccc3)oc2CC1 [NCGC00413386-01]
36 | 4.42 | CC[S+](=O)([O-])c1cccc(C(=O)Nc2ccc(-c3nc4ccccc4s3)c(O)c2)c1 [NCGC00134166-03]
37 | > 30 | COc1cccc(C(=O)Nc2ccc(-c3nc4ccc(C)cc4s3)cc2)c1OC [NCGC00134693-01]
38 | 18 | Cc1nn(-c2ccc(C(C)C)cc2)c(C)c1[C@@H]1C=C[C@@H](NC(=O)NC(C)C)C1 [NCGC00399949-01]
39 | 12.4 | Cc1ccc(N2C(=O)c3[nH]nc(C)c3C2c2ccc(Cl)cc2)cc1 (centres unmarked) [NCGC00108483-01]
40 | 5.56 | Clc1ccc(-c2nc(-c3ccccn3)no2)cc1Cl [NCGC00075852-01]
41 | > 30 | O=C(Nc1ccc(-c2nc3ccccc3s2)cc1)c1c(F)c(F)c(F)c(F)c1F [NCGC00598374-01]
42 | 25.4 | Cn1c([C@H]2CCN(C3CCCCC3)C2)nc2ccccc21 [NCGC00394901-01]
43 | 2.48 | COc1cccc(-c2nc3ccc(-c4ccc5c(c4)OCO5)cc3o2)c1OC [NCGC00474498-01]
44 | 0.785 | Cc1ccc2nc(-c3ccc(NC(=O)C(F)(F)F)cc3)sc2c1 [NCGC00100068-01]
45 | 12.4 | CN1c2cc(C(=O)Nc3cc(F)ccc3F)ccc2C(=O)N2CCCCCC21 (centres unmarked) [NCGC00452248-01]
46 | 6.24 | COc1ccc(-c2nc3ccccc3s2)cc1NC(=O)c1cccc([N+](=O)[O-])c1C [NCGC00102361-01]
47 | > 30 | CCCn1c(C)cnc1CC1CCN(C(=O)C2(c3ccc(OC)cc3)CC2)C1 (centres unmarked) [NCGC00464172-01]
48 | > 30 | Cc1ccc(Cl)cc1-n1ncc2c(N3CCC(C(N)=O)CC3)ncnc21 [NCGC00138952-01]
49 | 0.624 | C#CCn1c(/C=C/c2ccc(Cl)cc2)nc2ccccc21 [NCGC00114864-01]
50 | > 30 | COc1ccc(-c2cccc(COc3cnc4c(ccn4CC(=O)O)c3)c2)c(C)c1 [NCGC00418229-01]
51 | 12.4 | CCn1c(=O)c(C(=O)Nc2ccc(C(C)=O)cc2)nc2ccccc21 [NCGC00107725-01]
52 | 8.81 | Cc1ccc(NC(=O)c2ccc3snnc3c2)cc1C [NCGC00114783-01]
53 | 18 | O=C(Nc1ccc(F)cc1)c1cc2cccnn2n1 [NCGC00477081-01]
54 | 11.1 | NC(=O)C1CCCN(c2ncnc3c2cnn3-c2ccccc2)C1 (centres unmarked) [NCGC00644764-01]

Row | IC50 [µM] | Compound
55 | 12.4 | Cc1ccc(NC(=O)N2CCC(CCNC(=O)C3CCC3)CC2)cc1F [NCGC00425059-01]
56 | 12.4 | CCNc1cc(N2CCC(CCC(=O)Nc3ccc4c(c3)OCCO4)CC2)ncn1 [NCGC00470231-01]
57 | > 30 | CCC(=O)Nc1cc(-c2nc3ccccc3s2)c(Cl)cc1Cl [NCGC00103217-01]
58 | 12.4 | CC1CCC(NC(=O)c2noc(-c3ccccc3F)n2)CC1 (centres unmarked) [NCGC00447353-01]
59 | 4.42 | O=C(Nc1ccc2c(c1)OCCO2)C1CN([S+](=O)([O-])C2CC2)CC12CCCCC2 (centres unmarked) [NCGC00439803-01]
60 | > 30 | Oc1cc(-c2nc3ccccc3s2)cc2c1OCCN(Cc1cccn1-c1ncccn1)C2 [NCGC00239686-01]
61 | > 30 | Cc1ccc(-c2nc3ccccc3s2)cc1NC(=O)c1ccc(-c2cccc(Cl)c2)o1 [NCGC00187468-01]
62 | 0.624 | Cc1ccc(/C=C/c2nc3ccccc3n2S(=O)(=O)c2ccc(Br)cc2)cc1 [NCGC00140607-01]
63 | > 30 | COc1ccc(CNC(=O)c2ccc3c(c2)N=C(C)c2c(C)ccc(C)c2S3)cc1 [NCGC00112026-02]
64 | > 30 | OCC1(CC2CC2)CCCN(c2nc(-c3ccccc3)no2)C1 (centres unmarked) [NCGC00440394-01]
65 | 12.4 | CCn1ncc(NC(=O)Cn2ncc3cc(-c4ccc(C)cc4F)ccc32)n1 [NCGC00430893-01]
66 | 16.1 | c1ccc(-c2cnc(Nc3ccc4c(c3)OCCO4)c3c2CCO3)cc1 [NCGC00412769-01]
67 | 6.4 | CC(C)(C)CN1CCNc2cc(Nc3cccnc3)ncc2C1 [NCGC00411255-01]
68 | > 30 | Nc1nc(N2CCC3(CC2)NC(=O)CC3C(=O)O)c2nc[nH]c2n1 (centres unmarked) [NCGC00447244-01]
69 | 8.81 | Cc1ccc(OCc2nc(C3CN(C(=O)c4n[nH]c5ccccc45)C3)no2)cc1 [NCGC00456269-01]
70 | 11.1 | CCC(C(=O)NCCn1ccn2nc(-c3ccc(OC)cc3)cc2c1=O)c1ccccc1 (centres unmarked) [NCGC00456905-01]
71 | > 30 | Cc1ccc(C(=O)Nc2cccc3cccnc23)cc1Cl [NCGC00103195-01]
72 | 11.1 | Cc1ccc(NC(=O)Nc2ccc(C)n(CC(=O)NCCN3CCCC3)c2=O)cc1 [NCGC00430806-01]
73 | > 30 | Cc1ccc2nc(-c3ccc(NC(=O)c4ccc([S+](C)(=O)[O-])cc4)cc3)sc2c1 [NCGC00134160-01]
74 | 9.89 | CN(Cc1nccs1)c1ccc(-c2nc(-c3ccccc3F)no2)cn1 [NCGC00425298-01]
75 | > 30 | Cc1ccc(Cl)cc1-n1nnc(-c2nsc(NC(=O)c3ccccc3Cl)n2)c1C [NCGC00105211-01]
76 | > 30 | CC(C)c1nc2c(c(-c3ccc(O)cc3)n1)CN(Cc1ccccc1)CC2 [NCGC00480075-01]
77 | 0.442 | Cc1ccc(Cc2cn3cc(-c4ccccc4)nc3s2)cc1 [NCGC00102098-01]
78 | > 30 | CN(c1ccc(NC(=O)Nc2ccc(OC(F)(F)F)cc2)cc1)c1ccnc(Nc2cccc([S+](N)(=O)[O-])c2)n1 [NCGC00242042-02]
79 | > 30 | Nc1nccc(-c2c(-c3ccc(F)cc3)ncn2C2CCNCC2)n1 [NCGC00165900-01]
80 | 11.1 | Cc1cc(CNC(=O)C2(C(N)=O)CC2)c2[nH]c(-c3ccccc3)c(C)c2c1 [NCGC00426839-01]

Row | Compound | IC50 [µM]
81 | Cc1ccccc1Cn1cccc(C(=O)Nc2nc3ccccc3s2)c1=O [NCGC00134725-01] | 0.881
82 | COc1ccc(-c2cc3c(cn2)CN(C)CCN3)cn1 [NCGC00411253-01] | 22.6
83 | O=C(Nc1ccccc1)Nc1ccc2n(c1=O)C[C@H]1C[C@@H]2CN(C(=O)c2ccccc2)C1 [NCGC00397999-01] | 18
